From patent US20210308077A1, “COMBINATIONS INCLUDING BETA-ADRENORECEPTOR AGONISTS FOR TREATMENT OF PARKINSON`S DISEASE AND MOVEMENT DISORDERS” (The Brigham and Women`s Hospital, Inc., priority 2017, published 2021)

Key:
[1] = system: MPTP mouse model; assay: controlled trial in the MPTP mouse model; format: in vivo; conditions: MPTP 20 mg/kg i.p. five days; clenbuterol 10 mg/kg i.p. once then oral gavage daily for two weeks
Protocol: Male C57bl/6 mice (8-10 weeks old) were analyzed. N-methyl-4-phenyl-1,2,3,6-tetrahydropyridine (MPTP-HCl; 20 mg/kg, measured as free base; Sigma, St. Louis, Mo.) was administered to mice intraperitoneally once per day for five consecutive days similar to described previously (26,36). Eight MPTP-treated mice assigned to the clenbuterol treatment group received one 10 mg/kg i.p. injection of clenbuterol (two days prior to MPTP treatment start) and then clenbuterol via oral gavage (10 mg/kg) daily for two weeks (starting on the day of the first MPTP treatment). Another eight MPTP-treated mice assigned to the vehicle treatment group received only oral drinking water (without clenbuterol). […]
After overnight postfixation in 4% paraformaldehyde, brains were cryoprotected in 30% sucrose before cryosectioning into […] (used for stereology) free-floating sections, obtained as described previously (36). […] TH+ cells were analyzed by sterological estimates as described previously (36). Briefly, the total number of TH+neurons in the SNc was calculated by optical fractionation using Stereo Investigator (version 6; MicroBrightField, Williston, Vt.). […] Total number of TH+ neurons was determined using the optical fractionator. Adjacent tissue was also stained using cresyl violet (Sigma, 0.01% for 5 min) to confirm cell loss as assessed by TH analysis.

[2] = system: α-synuclein protein and SNCA mRNA; assay: SNCA expression in SNCA-triplication iPSC-derived neuronal progenitor cells; format: cell-based, human; conditions: SNCA-triplication NPCs, 20 μM
Protocol: The derivation and culture of the WIBR-IPS-αSyn^TRPLline has been described previously (27).
To initiate differentiation, iPSC colonies were pretreated for 30-60 min with 5 μM Y-27632, a ROCK inhibitor (Calbiochem). They were single cell-dissociated after 5-10 minute exposure to accutase (StemProAccutase; Life Technologies) and then re-suspended in neural base (NB) medium, which is DMEM/F12 (Gibco/Life Technologies) supplemented with 0.5% N2 and 1% B27 (Life Technologies). […]
Total RNA from flash-frozen mice brain tissue, rodent primary cells, human neuroblastoma cells and iPSC-derived neuronal cells was isolated using TRIzol® (Life Technologies) following the manufacturer's protocol. RNA concentration was measured using NanoDrop spectrophotometer (Thermo Fisher Scientific, Wilmington, De.). […] Quantitative PCR was performed using TaqMan Universal PCR Master Mix (Applied Biosystems) on an ABI 7900HT instrument (Applied Biosystems) as described previously (31). […] Expression values were analyzed using the comparative threshold cycle method (31). […]

CC(C)(C)NCC(O)c1cc(Cl)c(N)c(Cl)c1 (stereo not shown) [clenbuterol]
TH+ neurons in the SNpc [1]: abrogated the MPTP-induced loss of TH+ neurons | cresyl-violet (CV) stained cells in the SNpc [1]: blocked the loss of cresyl-violet (CV) stained cells | SNCA mRNA expression ([2]; 3 days, P<0.005): significantly reduced | endogenous α-synuclein protein ([2]; 4 days, P<0.05): significantly reduced
